Measured values taken from PMC12278462, “Site-selective arylations of nature-inspired flavonoids or steroidal phenols via C—H or O—H activation” (Journal of Enzyme Inhibition and Medicinal Chemistry, 2025).
Where two headings read alike, the source gives them in different places.

Key:
[1] = biological target: T1, 17β-HSD1 (Homo sapiens, UniProt P14061); assay: 17β-HSD1 enzymatic assay (E1 to E2, LC-MS/MS); type: biochemical; details: for inhibition at 10 µM / inhibition at 100 µM: read-out: 17β-HSD1 Inhibition (% ± SD)
T1 sequence (P14061 1-328): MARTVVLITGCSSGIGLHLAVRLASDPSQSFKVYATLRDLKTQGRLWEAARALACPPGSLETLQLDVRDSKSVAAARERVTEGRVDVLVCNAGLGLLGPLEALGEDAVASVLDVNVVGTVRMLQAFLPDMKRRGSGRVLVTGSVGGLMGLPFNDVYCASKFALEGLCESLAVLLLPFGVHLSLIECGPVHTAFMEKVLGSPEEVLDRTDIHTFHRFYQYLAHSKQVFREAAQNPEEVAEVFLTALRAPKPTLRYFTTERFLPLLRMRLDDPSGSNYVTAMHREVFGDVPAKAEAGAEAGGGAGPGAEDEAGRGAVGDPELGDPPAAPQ
Procedure: The bacterial homogenate of E. coli overexpressing HSD17B1 was previously prepared as described in references ^S2,S3, and stored in aliquots at -80 °C. Before conducting experiments, aliquots were quickly thawed and diluted twice with 100 mM sodium phosphate buffer (pH 6.5; #14457, #1411007, Kemika), then kept on ice. The enzymatic assay was performed as described in ^S3. Briefly, a 1 mL enzymatic reaction mixture was prepared in 2 mL microcentrifuge tubes with the following components: 10 µL of the test inhibitor dissolved in dimethyl sulfoxide (DMSO; #276855, Sigma Aldrich) or 10 µL of DMSO for control samples, 5 µL of 14 µM substrate estrone (E1; CAS 53-16-7; #E2300-000, Steraloids), 10 µL of 10 mM NADPH (#AE14, Carl Roth) prepared in 100 mM sodium phosphate buffer, and 965 µL of 100 mM sodium phosphate buffer (pH 6.5). The reaction mixture was mixed thoroughly before adding 10 µL of bacterial homogenate. Immediately after addition, the tubes were transferred to an Eppendorf thermoshaker (#5382000031, Eppendorf) and incubated at 37 °C for 10 minutes. To stop the reaction, 60 µL of 1.26 M ascorbic acid (#A92902, Sigma Aldrich) in methanol (#34966, Honeywell/Riedel-de Haen) /acetic acid (#1.00063, Merck) (99:1, v/v) was added. The samples were then immediately processed using solid-phase extraction (SPE). The assay was repeated in three independent experiments, with each experiment performed in technical duplicate.
The preparation of samples for liquid chromatography-tandem mass spectrometry (LC-MS/MS) involved SPE. Stock solutions of E1 and 17β-estradiol (E2; CAS: 50-28-2; #142406, Steraloids) were prepared gravimetrically and dissolved in methanol (#34966, Honeywell/Riedel-de Haen). A working calibrator solution containing both steroids was then prepared by mixing appropriate volumes of the stock solutions in methanol to achieve a final concentration of 1 µg/mL for each steroid. Eight-point calibration curves (excluding zero and blank) were prepared in 100 mM sodium phosphate buffer (pH 6.5). For each 1 mL reaction mixture or calibrator, 10 µL of 100 ng/mL internal standard solution containing [2,3,4-13C3]-17β-estradiol (#719552, Sigma Aldrich) was added. Samples were mixed thoroughly and incubated at room temperature for 15 minutes.
SPE was performed using Strata X 33 µm polymeric reversed-phase columns (30 mg/mL tubes; #8B-S100-TAK, Phenomenex). The procedure involved the following steps: column conditioning with 1 mL of methanol, column equilibration with 1 mL of H₂O (#1.15333, Supelco), sample loading (1 mL sample or calibrator), column washing with 1 mL of H₂O, column drying under high vacuum for 10 minutes, and finally elution with 1 mL of methanol directly into HPLC glass vials (#702713, Macherey-Nagel GmbH/Co). The eluted samples were stored at -20 °C until LC-MS/MS analysis.

[2] = test system: MCF-7; assay: MTT antiproliferative assay, MCF-7; type: cell-based, human; details: for inhibition at 10 µM: MCF7, 10 µM; for inhibition at 30 µM: MCF7, 30 µM; for IC50: read-out: calculated IC50 MCF-7
Procedure: (§1) We evaluated the cytotoxic activity of the newly synthesised arylated compounds 13–17 by the MTT assay[37] on a panel of human adherent cancer cell lines. The panel included breast (MCF-7 and MDA MB-231) and cervical (HeLa, SiHa and C33A) cancer cell lines differing in receptorial or HPV status. Tumour selectivity was determined on the NIH/3T3 mouse fibroblast cell line.
(§2) Briefly, the panels of breast and cervical cancerous cell lines, differing by their receptorial and HPV status were used, precisely MCF-7 (ER, PR and HER2 positive) and MDA-MB-231 (TNBC) breast carcinoma and HeLa (HPV18+), SiHa (HPV16+), C33A (HPV-) cervical carcinoma cells. Non-cancerous NIH/3T3 mouse fibroblast cell line was used for selectivity study. MCF-7, MDA-MB-231, Hela and NIH/3T3 cell lines were purchased from ECACC (European Collection of Cell Cultures, Salisbury, UK), while SiHa and C33A from ATCC (American Tissue Culture Collection, LGC Standards GmbH, Wesel, Germany). Cells were maintained in Eagle's Minimum Essential Medium (EMEM, Capricorn Scientific GmbH, Ebsdorfergrund, Germany) supplemented with 10% heat-inactivated fetal bovine serum (FBS), 1% non-essential amino acids (NEAA), and 1% antibiotic-antimycotic mixture (penicillin–streptomycin). The cells were maintained at 37 °C in a humidified atmosphere containing 5% CO2.
(§3) For measurements cells were seeded for 96-well plates at a density of 5 000/well, except for C33A, which was seeded in 10 000cells for each well. After overnight standing cells were treated with 10 and 30 µM solutions for screening and increasing concentrations (0.1-30.0 µM) of the test compounds were used for concentration-response curves. After incubation for 72 hours under cell culturing condition 5 mg/ml MTT (3-(4,5-[…])-2,5-diphenyl-2H-tetrazolium bromide) solution was added for another 4 h. The precipitated formazan crystals were solubilized in DMSO and the absorbance was measured at 545 nm with a microplate reader (BMG Labtech, Ortenberg, Germany). Wells with untreated cells were utilized as control, and inhibition % were calculated by GraphPad Prism v 9.0 software (GraphPad Software, San Diego, CA, USA). If the growth-inhibition exceeded 70% at 30 µM concentration during the screening concentration-response curves were fitted and IC50 values were calculated by GraphPad Prism v 9.0. The experiments were performed with five parallel wells for each experimental condition and repeated at least twice.

[3] = test system: MDA-MB-231; assay: MTT antiproliferative assay, MDA-MB-231; type: cell-based, human; details: for inhibition at 10 µM: MDA-MB-231, 10 µM; for inhibition at 30 µM: MDA-MB-231, 30 µM; for IC50: read-out: calculated IC50 MDA-MB-231
Procedure: as §1, §2, §3

[4] = test system: HeLa; assay: MTT antiproliferative assay, HeLa; type: cell-based, human; details: 72 h; for IC50: read-out: calculated IC50 HeLa
Procedure: as §1, §2, §3

[5] = test system: SiHa; assay: MTT antiproliferative assay, SiHa; type: cell-based, human; details: 72 h; for IC50: read-out: calculated IC50 SiHa
Procedure: as §1, §2, §3

[6] = test system: C33A; assay: MTT antiproliferative assay, C33A; type: cell-based, human; details: 72 h; for IC50: read-out: calculated IC50 C33A
Procedure: as §1, §2, §3

[7] = test system: NIH/3T3 mouse fibroblast cell line; assay: MTT assay, tumour selectivity on non-cancerous fibroblasts; type: cell-based; details: for inhibition at 10 µM: NIH3T3, 10 µM; for inhibition at 30 µM: NIH3T3, 30 µM; for IC50: read-out: calculated IC50 NIH/3T3
Procedure: as §1, §2, §3

Structure (SMILES)	inhibition at 10 µM ([1]; 10 µM test concentration)	inhibition at 10 µM ([2]; Homo sapiens, 72 h)	inhibition at 30 µM ([2]; Homo sapiens, 72 h)	inhibition at 10 µM ([3]; Homo sapiens, 72 h)	inhibition at 30 µM ([3]; Homo sapiens, 72 h)	inhibition at 10 µM ([4]; Homo sapiens, HeLa)	inhibition at 30 µM ([4]; Homo sapiens, HeLa)	inhibition at 10 µM ([5]; Homo sapiens, SiHa)	inhibition at 30 µM ([5]; Homo sapiens, SiHa)	inhibition at 10 µM ([6]; Homo sapiens, C-33-A)	inhibition at 30 µM ([6]; Homo sapiens, C-33-A)	inhibition at 10 µM ([7]; Mus musculus, 72 h)	inhibition at 30 µM ([7]; Mus musculus, 72 h)	other results
C[C@@]12CC[C@@H]3c4cc(-c5ccccc5)c(O)cc4CC[C@H]3[C@@H]1CCC2=O [2-Ph]	54 ± 7.8%	–	–	–	–	–	–	–	–	–	–	–	–	inhibition at 100 µM ([1]; 100 µM test concentration): 59.4 ± 7.8%
C[C@@]12CC[C@@H]3c4ccc(O)c(-c5ccccc5)c4CC[C@H]3[C@@H]1CCC2=O [4-Ph, reference compound]	41.4 ± 0.2%	–	–	–	–	–	–	–	–	–	–	–	–	inhibition at 100 µM ([1]; 100 µM test concentration): 52.1 ± 17.4%
CN(C)C(=O)Oc1cc2c(c(-c3ccccc3)c1)[C@H]1CC[C@@]3(C)C(=O)CC[C@H]3[C@@H]1CC2 [13a, 3-(N,N-Dimethylcarbamoyloxy)-1-phenyl-13α-estra-1,3,5(10)-triene-17-one]	–	22.5%	52.8%	< 10%	41%	30.9%	59.9%	13.7%	41%	< 10%	27.2%	13.5%	22.5%	17β-HSD1 Inhibition (% ± SD) ([1]; 10 µM test concentration): No inhibition; inhibition at 100 µM [1]: 33.6 ± 14.9%
CN(C)C(=O)Oc1cc2c(c(-c3ccc(Br)cc3)c1)[C@H]1CC[C@@]3(C)C(=O)CC[C@H]3[C@@H]1CC2 [13b, 1-(4-bromophenyl)-3-(N,N-dimethylcarbamoyloxy)-13α-estra-1,3,5(10)-triene-17-one]	–	37.5%	68.7%	< 10%	13.9%	53.6%	59.3%	38.6%	40%	< 10%	57.8%	< 10%	46.3%	inhibition at 10 µM [1]: 14.5 ± 8.4%; inhibition at 100 µM [1]: 42.2 ± 18.6%
CCCCOC1(c2cc(=O)c3c(Oc4ccccc4)cc(O)cc3o2)C=CC(=O)C=C1 [17a, 2-(1-Butoxy-4-oxocyclohexa-2,5-dienyl)-7-hydroxy-5-phenoxy-chromen-4-one]	–	93.1%	93.7%	95.7%	96.9%	93.6%	94.3%	86.2%	95%	98.1%	98.5%	94.2%	98.7%	IC50 ([2]; Homo sapiens, MCF7, 72 h): 0.97 µM; IC50 ([3]; Homo sapiens, MDA-MB-231, 72 h): 0.72 µM; IC50 ([4]; Homo sapiens, HeLa): 1.16 µM; IC50 ([5]; Homo sapiens, SiHa): 1.29 µM; IC50 ([6]; Homo sapiens, C-33-A): 0.43 µM; IC50 ([7]; Mus musculus, NIH3T3, 72 h): 2.33 µM
CCCCOC1(c2cc(=O)c3c(Oc4ccc(Br)cc4)cc(O)cc3o2)C=CC(=O)C=C1 [17b, 5-(4-Bromophenoxy)-2-(1-butoxy-4-oxocyclohexa-2,5-dienyl)-7-hydroxy-chromen-4-one]	–	97.4%	98.4%	97%	97.9%	97%	97.7%	84.5%	93.8%	97.7%	97.8%	97.5%	98.6%	IC50 ([2]; Homo sapiens, MCF7, 72 h): 1.15 µM; IC50 ([3]; Homo sapiens, MDA-MB-231, 72 h): 0.73 µM; IC50 ([4]; Homo sapiens, HeLa): 1.09 µM; IC50 ([5]; Homo sapiens, SiHa): 1.39 µM; IC50 ([6]; Homo sapiens, C-33-A): 0.52 µM; IC50 ([7]; Mus musculus, NIH3T3, 72 h): 1.61 µM
N.N.[Cl][Pt][Cl] [Cisplatin, reference compound]	–	–	–	–	–	–	–	–	–	–	–	–	–	IC50 ([2]; 72 h): 5.8 µM; IC50 ([3]; 72 h): 19.1 µM; IC50 [4]: 12.4 µM; IC50 [5]: 7.8 µM; IC50 [6]: 3.7 µM; IC50 ([7]; 72 h): 4.7 µM
C[C@]12CC[C@H]3C(=CCc4cc(O)ccc43)[C@@H]1CCC2=O [Equilin, reference compound]	85.9 ± 1.6%	–	–	–	–	–	–	–	–	–	–	–	–	–
C[C@@]12CC[C@@H]3c4c(cc(OCc5cn(Cc6ccccc6)nn5)cc4-c4ccc(Br)cc4)CC[C@H]3[C@@H]1CCC2=O [compound 16, 3-[{1-Benzyl-1H-1,2,3-triazol-4-yl}methoxy]-1-(4-bromophenyl)-13a-estra-1,3,5 (10)-trien-17-one]	–	< 10%	< 10%	< 10%	< 10%	22.4%	33.1%	< 10%	10.4%	< 10%	< 10%	< 10%	11.2%	–
